# Experimental data published in patent US4198429A, “Esters of 5-methyl-10,11-dihydroprostaglandin-A1” (Hoechst Aktiengesellschaft, priority 1976, dated 1980).
# Tests used:
# Assay type in all cases: in vivo, Guinea pig
# [1] = test system: bronchospasm caused by histamine; experiment: Bronchospasmolytic activity, modified Konzett-Rossler test, histamine-induced bronchospasm; details: dose inhibiting effect of asthmogenic agent to 50% of initial value, male white Guinea pigs, anesthesized, V. jugularis
# Description: (§1) To test the bronchospasmolytic activity of the compounds of the invention the following experiments were carried through:
# (§2) TEST ACCORDING TO KONZETT-ROSSLER
# (§3) To test the bronchospasmolytic activity the respiratory volume was measured by the method of Konzett-Rossler, according to which the air volume is measured which is taken up by the lung when the maximum inflation pressure is maintained constant and a constant volume is offered by high pressure respiration. Capacity variations in the respiratory tract result in an increase or decrease of the amount of air taken up by the lung under the given constant inflation pressure.
# (§4) As test animals male white Guinea pigs having a weight of from 400 to 500 grams were used which had been anesthesized with 10 mg/kg i.p. of Evipan and 200 mg/kg i.p. of urethane. The substance to be tested was administered by means of a catheter in the V. jugularis. The positive pressure respiration depended on the normal respiratory volume of the test animal and could be adapted suitably and readily to the individual test animal. In the tests carried through the pressure indicated by Rosenthal and Dervinis of 80 mm H2 O was used. During the recovery phase after a bronchospastic reaction the flexible hose leading to the water manometer was clamped off for a short period of time in order to open deflating lung segments. The respiration frequency amounted to 64-72 per minute. The respiratory volume was measured according to the slightly modified Konzett-Rossler method wherein the piston recorder was replaced by a back-pressure tube according to Fleisch (type 0000). The occuring pressure difference was recorded by a difference pressure recorder of the type Statham PM 97 CT. To record the measured values a multi-channel recorder of Messrs. Hellige was used. The substance to be tested was used in the form of a standard solution in absolute alcohol. Directly prior to the start of the test it was diluted to the required final concentration with phosphate buffer (pH 7.4). The asthmogenic solution was prepared with double distilled water.
# (§5) As asthmogenic agents histamine dihydrochloride, acetyl choline chloride and sertonine creatinine sulfate were used. To reduce the error resulting from individual differences in the bronchospasm intensity with a uniform dose of asthmogenic agent, the dosage unit was chosen such that an about 70 to 80% decrease of the absorption capacity of the lung was obtained. The experimental data were subjected to the regression analysis according to the probit transformation and the equation of the straight lines of regression y=a+b log x was calculated. In this manner the average inhibition dose (ID50 =the dose which inhibits the effect of the asthmogenic agent to 50% of the initial value) was found. Additionally, the results obtained by carrying out a simple variance analysis in the Duncan Test were compared with the control.
# [2] = test system: spasm caused by acetylcholine; experiment: Bronchospasmolytic activity, modified Konzett-Rossler test, acetylcholine-induced bronchospasm; details: dose inhibiting effect of asthmogenic agent to 50% of initial value, male white Guinea pigs, anesthesized, V. jugularis
# Description: as §1, §2, §3, §4
# as §5, with “Additionally, the results obtained by carrying out a simple variance analysis in the Duncan Test were compared with the control.” left out
# [3] = test system: spasm initiated by serotonin; experiment: Bronchospasmolytic activity, modified Konzett-Rossler test, serotonin-induced bronchospasm; details: dose inhibiting effect of asthmogenic agent to 50% of initial value, male white Guinea pigs, anesthesized, V. jugularis
# Description: as §1, §2, §3
# as §4, with “The substance to be tested was used in the form of a standard solution in absolute alcohol. Directly prior to the start of the test it was diluted to the required final concentration with phosphate buffer (pH 7.4). The asthmogenic solution was prepared with double distilled water.” left out
# As asthmogenic agents histamine dihydrochloride, acetyl choline chloride and sertonine creatinine sulfate were used. […] The experimental data were subjected to the regression analysis according to the probit transformation and the equation of the straight lines of regression y=a+b log x was calculated. […]
# bronchial muscles = experiment: Bronchospasmolytic effect and its duration, modified Konzett-Rossler test; details: male white Guinea pigs, anesthesized; V. jugularis; asthmogenic agent not specified
# Description: as §1, §2, §3, §4, §5
Compound,ID50 values histamine [1] [ng/animal],ID50 values acetylcholine [2] [ng/animal],ID50 values serotonin [3] [ng/animal],duration of effect (bronchial muscles) [min]
"CCCCC[C@H](O)/C=C/[C@H]1CCC(=O)[C@@H]1CCC(C)CCCC(=O)O (stereo partly shown) [comp. II, 5-methyl-10,11-dihydroprostaglandin-A1]",5,10,9,–
"CCCCC[C@H](O)/C=C/[C@H]1CCC(=O)[C@@H]1CCC(C)CCCC(=O)OC1CCCCC1 (stereo partly shown) [Example 6, 5-Methyl-10,11-dihydroprostaglandin-A1 cyclohexyl ester]",7.5,–,–,60
"CCCCC[C@H](O)/C=C/[C@H]1CCC(=O)[C@@H]1CCC(C)CCCC(=O)OCCCC (stereo partly shown) [Example 3, 5-Methyl-10,11-dihydroprostaglandin-A1 n-butyl ester]",0.63,6.9,1.2,15 to 20
"CCCCCCCCCCOC(=O)CCCC(C)CC[C@H]1C(=O)CC[C@@H]1/C=C/[C@@H](O)CCCCC (stereo partly shown) [Example 2, 5-Methyl-10,11-dihydroprostaglandin-A1 n-decyl ester]",4.2,–,–,30 to 45
"CCCCCCOC(=O)CCCC(C)CC[C@H]1C(=O)CC[C@@H]1/C=C/[C@@H](O)CCCCC (stereo partly shown) [Example 1, 5-Methyl-10,11-dihydroproxtaglandin-A1 n-hexyl ester]",1,3,–,30
"CCCCC[C@H](O)/C=C/[C@H]1CCC(=O)[C@@H]1CCC(C)CCCC(=O)OCCCc1ccccc1 (stereo partly shown) [Example 9, 5-Methyl-10,11-dihydroprostaglandin-A1-3-phenylpropyl ester]",1,–,–,25
CCCCC[C@H](O)/C=C/[C@H]1CCC(=O)[C@@H]1CCC(C)CCCC(=O)OCCCC(C)(C)C (stereo partly shown) [Example 4],7,–,–,20 to 25
"CCCCC[C@H](O)/C=C/[C@H]1CCC(=O)[C@@H]1CCC(C)CCCC(=O)OCCOCC (stereo partly shown) [Example 7, 5-Methyl-10,11-dihydroprostaglandin-A1-2-ethoxyethyl ester]",0.4,0.88,0.86,10 to 20
